Experimental data reported in EP4755888A1 (ILAb Co., Ltd., priority 2023, dated 2025).

Molecular target: PD-1/PD-L1 (Homo sapiens, UniProt Q9NZQ7)
Test: TR-FRET PD-1/PD-L1 binding inhibition at the molecular level (free proteins)
Settings: Tag1-PD-L1 and Tag2-PD-1 proteins, twelve concentrations from 200 nM, 2 hours at room temperature, read-out: FRET assay (IC50)
Description: In order to evaluate the inhibitory activity of the compounds synthesized according to the above Preparation Examples against PD-1/PD-L1 molecules in a free protein state,a TR-FRET (Time-Resolved Fluorescence Energy Transfer) experimetn was performed as described below.
Specifically, the compounds were prepared in a 96-well plate by serial dilution starting from 200 nM with 1/2 dilutions to obtain a total of twelve concentrations, and 2 µL of each compound solution was added to a 384-well plate. Thereafter, Tag1-PD-L1 protein and Tag2-PD-1 protein were each prepared at a 1x concentration, mixed at a ratio of 1:1, and 8 µL of the mixed solution was added to each well of the 384-well plate containing the compounds. Anti-Tag1 Eu Cryptate reagent and Anti-Tag2 XL665 antibody were each prepared at a 1* concentration, mixed at a ratio of 1:1, and 10 µL of the mixed solution was added to each well of the 384-well plate containing the compounds and proteins, followed by incubation at room temperature for 2 hours. Upon completion of the reaction, fluorescence signals at wavelengths of 620 nm and 665 nm were measured using a microplate reader.

PD-1/PD-L1, sequence (Q9NZQ7 19-238 limits assumed): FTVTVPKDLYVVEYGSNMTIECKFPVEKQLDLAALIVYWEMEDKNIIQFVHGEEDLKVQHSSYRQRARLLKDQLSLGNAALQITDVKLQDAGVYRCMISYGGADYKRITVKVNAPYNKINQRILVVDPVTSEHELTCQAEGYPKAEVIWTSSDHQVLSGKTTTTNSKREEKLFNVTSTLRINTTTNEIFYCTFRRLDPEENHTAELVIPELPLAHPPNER

Structure (SMILES)	IC50
Cc1c(NC(=O)c2ccc(CN3CC[C@@H](O)C3)cn2)cccc1-c1cccc(NC(=O)c2cc3n(n2)CCC[C@@H]3N2CCC[C@@H]2CO)c1C [Compound 310, (S)-4-((R)-2-(hydroxymethyl)pyrrolidin-1-yl)-N-(3'-(5-(((R)-3-hydroxypyrrolidin-1-yl)methyl)picolinamido)-2,2'-dimethyl-[1,1'-biphenyl]-3-yl)-4,5,6,7-tetrahydropyrazolo[1,5-a]pyridine-2-carboxamide]	< 10 nM
COc1nc(-c2cccc(-c3cccc(NC(=O)c4cc5n(n4)CCCC5O)c3C)c2C)cnc1CNC[C@@H]1CCC(=O)N1 (stereo partly drawn) [Compound 110, 4-hydroxy-N-(3'-(6-methoxy-5-(((((S)-5-oxopyrrolidin-2-yl)methyl)amino)methyl)pyrazin-2-yl)-2,2'-dimethyl-[1,1'-biphenyl]-3-yl)-4,5,6,7-tetrahydropyrazolo[1,5-a]pyridine-2-carboxamide]	< 10 nM
Cc1c(NC(=O)c2cc3n(n2)CCC[C@@H]3N2CC[C@@H](O)C2)cccc1-c1cccc(Nc2nc(C(F)(F)F)nc3cc(CN4CC[C@@H](O)C4)cnc23)c1C [Compound 344]	10 to 100 nM
O=C(O)CNC1CCCn2nc(C(=O)Nc3cccc(-c4cccc(NC(=O)c5ncc(CNCCO)cc5F)c4Cl)c3Cl)cc21 (centres unmarked) [Compound 200, 2-((2-((2,2'-dichloro-3'-(3-fluoro-5-(((2-hydroxyethyl)amino)methyl)picolinamido)-[1,1'-biphenyl]-3-yl)carbamoyl)-4,5,6,7-tetrahydropyrazolo[1,5-a]pyridin-4-yl)amino)acetic acid]	< 10 nM
Cc1c(NC(=O)c2cc3n(n2)CCCC3NCCO)cccc1-c1cccc(-c2cc3n(n2)CCCC3NCCO)c1C (centres unmarked) [Compound 158, 4-((2-hydroxyethyl)amino)-N-(3'-(4-((2-hydroxyethyl)amino)-4,5,6,7-tetrahydropyrazolo[1,5-a]pyridin-2-yl)-2,2'-dimethyl-[1,1'-biphenyl]-3-yl)-4,5,6,7-tetrahydropyrazolo[1,5-a]pyridine-2-carboxamide]	10 to 100 nM
O=C(Nc1cccc(-c2cccc(Nc3nc(C(F)(F)F)nc4cccnc34)c2Cl)c1Cl)c1cc2n(n1)CCC[C@@H]2N1CC(C(=O)O)C1 [Compound 277, (S)-1-(2-((2,2'-dichloro-3'-((2-(trifluoromethyl)pyrido[3,2-d]pyrimidin-4-yl)amino)-[1,1'-biphenyl]-3-yl)carbamoyl)-4,5,6,7-tetrahydropyrazolo[1,5-a]pyridin-4-yl)azetidine-3-carboxylic acid]	10 to 100 nM
COc1cc(-c2cccc(-c3cccc(NC(=O)c4cc5n(n4)CCCC5NCC(=O)O)c3Cl)c2Cl)cc(F)c1CNCCNC(C)=O (centres unmarked) [Compound 189, 2-((2-((4"-(((2-acetamidoethyl)amino)methyl)-2,2'-dichloro-3"-fluoro-5"-methoxy-[1,1':3',1"-terphenyl]-3-yl)carbamoyl)-4,5,6,7-tetrahydropyrazolo[1,5-a]pyridin-4-yl)amino)acetic acid]	< 10 nM
CC(C)(NC1CCCn2nc(C(=O)Nc3cccc(-c4cccc(NC(=O)c5ccc(CNCCO)cn5)c4Cl)c3Cl)cc21)C(=O)O (centres unmarked) [Compound 90, 2-((2-((2,2'-dichloro-3'-(5-(((2-hydroxyethyl)amino)methyl)picolinamido)-[1,1'-biphenyl]-3-yl)carbamoyl)-4,5,6,7-tetrahydropyrazolo[1,5-a]pyridin-4-yl)amino)-2-methylpropanoic acid]	< 10 nM
CC(=O)NCCNC1CCCn2nc(C(=O)Nc3cccc(-c4cccc(NC(=O)c5nc6c(n5C)CCN(CCC57CCC(C(=O)O)(CC5)C7)C6)c4Cl)c3Cl)cc21 (centres unmarked) [Compound 52, 4-(2-(2-((3'-(4-((2-acetamidoethyl)amino)-4,5,6,7-tetrahydropyrazolo[1,5-a]pyridine-2-carboxamido)-2,2'-dichloro-[1,1'-biphenyl]-3-yl)carbamoyl)-1-methyl-6,7-dihydro-1H-imidazo[4,5-c]pyridin-5(4H)-yl)ethyl)bicyclo[2.2.1]heptane-1-carboxylic acid]	< 10 nM
COc1nc(-c2cccc(-c3cccc(-c4cc5n(n4)CCCC5N4CC[C@@H](O)C4)c3Cl)c2Cl)cnc1CNC[C@@H]1CCC(=O)N1 (stereo partly drawn) [Compound 170, (5S)-5-((((5-(2,2'-dichloro-3'-(4-((R)-3-hydroxypyrrolidin-1-yl)-4,5,6,7-tetrahydropyrazolo[1,5-a]pyridin-2-yl)-[1,1'-biphenyl]-3-yl)-3-methoxypyrazin-2-yl)methyl)amino)methyl)pyrrolidin-2-one]	10 to 100 nM
CC(C)c1nc(Nc2cccc(-c3cccc(NC(=O)c4cc5n(n4)CCC[C@@H]5NC(C)(C)C(=O)O)c3Cl)c2Cl)c2ncccc2n1 (stereo in doubt) [Compound 300, (S)-2-((2-((2,2'-dichloro-3'-((2-isopropyl-pyrido[3,2-d]pyrimidin-4-yl)amino)-[1,1'-biphenyl]-3-yl)carbamoyl)-4,5,6,7-tetrahydropyrazolo[1,5-a]pyridin-4-yl)amino)-2-methylpropanoic acid]	10 to 100 nM

Further lines, results first:

IC50	Structure (SMILES)
< 10 nM	O=C(O)CNC1CCCn2nc(C(=O)Nc3cccc(-c4cccc(NC(=O)c5ncc(CN6CC[C@@H](O)C6)cc5F)c4Cl)c3Cl)cc21 (stereo partly drawn) [Compound 204, 2-((2-((2,2'-dichloro-3'-(3-fluoro-5-(((R)-3-hydroxypyrrolidin-1-yl)methyl)picolinamido)-[1,1'-biphenyl]-3-yl)carbamoyl)-4,5,6,7-tetrahydropyrazolo[1,5-a]pyridin-4-yl)amino)acetic acid]
< 10 nM	CC(C)(NC1CCCn2nc(C(=O)Nc3cccc(-c4cccc(NC(=O)c5ccc(CN6CC[C@@H](O)C6)cn5)c4Cl)c3Cl)cc21)C(=O)O (stereo partly drawn) [Compound 108, 2-((2-((2,2'-dichloro-3'-(5-(((R)-3-hydroxypyrrolidin-1-yl)methyl)picolinamido)-[1,1'-biphenyl]-3-yl)carbamoyl)-4,5,6,7-tetrahydropyrazolo[1,5-a]pyridin-4-yl)amino)-2-methylpropanoic acid]
100 to 1000 nM	CC(C)c1nc(Nc2cccc(-c3cccc(NC(=O)c4cc5n(n4)CCC[C@@H]5N4CC(C(=O)O)C4)c3Cl)c2Cl)c2ncccc2n1 [Compound 301, (S)-1-(2-((2,2'-dichloro-3'-((2-isopropyl-pyrido[3,2-d]pyrimidin-4-yl)amino)-[1,1'-biphenyl]-3-yl)carbamoyl)-4,5,6,7-tetrahydropyrazolo[1,5-a]pyridin-4-yl)azetidine-3-carboxylic acid]
10 to 100 nM	CC(C)(N[C@H]1CCCn2nc(C(=O)Nc3cccc(-c4cccc(Nc5nc(C(F)F)nc6cc(CN7CC[C@@H](O)C7)cnc56)c4Cl)c3Cl)cc21)C(=O)O [Compound 258, 2-(((S)-2-((2,2'-dichloro-3'-((2-(difluoromethyl)-7-(((R)-3-hydroxypyrrolidin-1-yl)methyl)pyrido[3,2-d]pyrimidin-4-yl)amino)-[1,1'-biphenyl]-3-yl)carbamoyl)-4,5,6,7-tetrahydropyrazolo[1,5-a]pyridin-4-yl)amino)-2-methylpropanoic acid]
10 to 100 nM	O=C(Nc1cccc(-c2cccc(Nc3nccc4cc(CN5CC[C@@H](O)C5)cnc34)c2Cl)c1Cl)c1cc2n(n1)CCCC2NC(CO)CO (stereo partly drawn) [Compound 230, N-(2,2'-dichloro-3'-((3-(((R)-3-hydroxypyrrolidin-1-yl)methyl)-1,7-naphthyridin-8-yl)amino)-[1,1'-biphenyl]-3-yl)-4-((1,3-dihydroxypropan-2-yl)amino)-4,5,6,7-tetrahydropyrazolo[1,5-a]pyridine-2-carboxamide]
10 to 100 nM	CN[C@H]1CCCn2nc(C(=O)Nc3cccc(-c4cccc(NC(=O)c5ccc(CN6CC[C@@H](O)C6)cn5)c4Cl)c3Cl)cc21 [Compound 350, (S)-N-(2,2'-dichloro-3'-(5-(((R)-3-hydroxypyrrolidin-1-yl)methyl)picolinamido)-[1,1'-biphenyl]-3-yl)-4-(methylamino)-4,5,6,7-tetrahydropyrazolo[1,5-a]pyridine-2-carboxamide]
10 to 100 nM	O=C(Nc1cccc(-c2cccc(Nc3nc(C(F)F)nc4cc(CN5CC[C@@H](O)C5)cnc34)c2Cl)c1Cl)c1cc2n(n1)CCC[C@@H]2N1CCC(O)CC1 [Compound 295, (S)-N-(2,2'-dichloro-3'-((2-(difluoromethyl)-7-(((R)-3-hydroxypyrrolidin-1-yl)methyl)pyrido[3,2-d]pyrimidin-4-yl)amino)-[1,1'-biphenyl]-3-yl)-4-(4-hydroxypiperidin-1-yl)-4,5,6,7-tetrahydropyrazolo[1,5-a]pyridine-2-carboxamide]
10 to 100 nM	CC(C)(N[C@@H]1CCCn2nc(C(=O)Nc3cccc(-c4cccc(Nc5nccc6nccnc56)c4Cl)c3Cl)cc21)C(=O)O [Compound 259-1, (R)-2-((2-((2,2'-dichloro-3'-(pyrido[3,4-b]pyrazin-5-ylamino)-[1,1'-biphenyl]-3-yl)carbamoyl)-4,5,6,7-tetrahydropyrazolo[1,5-a]pyridin-4-yl)amino)-2-methylpropanoic acid]
10 to 100 nM	O=C(O)CN[C@H]1CCCn2nc(C(=O)Nc3cccc(-c4cccc(Nc5nc(C(F)F)nc6cc(CN7CC[C@@H](O)C7)cnc56)c4Cl)c3Cl)cc21 (stereo in doubt) [Compound 294, 2-(((S)-2-((2,2'-dichloro-3'-((2-(difluoromethyl)-7-(((R)-3-hydroxypyrrolidin-1-yl)methyl)pyrido[3,2-d]pyrimidin-4-yl)amino)-[1,1'-biphenyl]-3-yl)carbamoyl)-4,5,6,7-tetrahydropyrazolo[1,5-a]pyridin-4-yl)amino)acetic acid]
